What was measured:
[1] = relative permittivity at various frequencies (dimensionless); xn = mol fraction of the nth substance listed; conditions: Liquid, Frequency=1 MHz, Parallel plate capacitor
[2] = xn = mol fraction of the nth substance listed; conditions: Liquid, Vibrating tube method

COCCOC [1,2-dimethoxyethane] + CCCCCCCC
97.1 kPa
Conditions	mass density, [2] [kg/m3]	relative permittivity, [1]
288.15 K, x2 = 0	872.06	7.41
288.15 K, x2 = 0.0493	857.73	–
288.15 K, x2 = 0.0502	–	6.79
288.15 K, x2 = 0.1011	843.79	–
288.15 K, x2 = 0.1035	–	6.21
288.15 K, x2 = 0.2005	–	5.31
288.15 K, x2 = 0.2032	819.39	–
288.15 K, x2 = 0.3015	–	4.54
288.15 K, x2 = 0.3036	798.48	–
288.15 K, x2 = 0.4019	780.49	–
288.15 K, x2 = 0.4024	–	3.92
288.15 K, x2 = 0.4964	–	3.45
288.15 K, x2 = 0.4992	764.69	–
288.15 K, x2 = 0.6022	–	3.01
288.15 K, x2 = 0.6046	749.52	–
288.15 K, x2 = 0.7031	–	2.67
288.15 K, x2 = 0.707	736.47	–
288.15 K, x2 = 0.8035	–	2.38
288.15 K, x2 = 0.8044	725.4	–
288.15 K, x2 = 0.9038	–	2.15
288.15 K, x2 = 0.9082	714.88	–
288.15 K, x2 = 0.9495	711.04	–
288.15 K, x2 = 0.9511	–	2.06
298.15 K, x2 = 0	861.17	7.07
298.15 K, x2 = 0.0487	–	6.5
298.15 K, x2 = 0.0493	847.03	–
298.15 K, x2 = 0.1004	–	5.97
298.15 K, x2 = 0.1011	833.26	–
298.15 K, x2 = 0.2032	809.21	–
298.15 K, x2 = 0.204	–	5.07
298.15 K, x2 = 0.3008	–	4.39
298.15 K, x2 = 0.3036	788.62	–
298.15 K, x2 = 0.4019	770.94	–
298.15 K, x2 = 0.4064	–	3.78
298.15 K, x2 = 0.4992	755.41	–
298.15 K, x2 = 0.5043	–	3.32
298.15 K, x2 = 0.6046	740.56	2.93
298.15 K, x2 = 0.7038	–	2.62
298.15 K, x2 = 0.707	727.79	–
298.15 K, x2 = 0.8039	–	2.35
298.15 K, x2 = 0.8044	716.95	–
298.15 K, x2 = 0.9008	–	2.14
298.15 K, x2 = 0.9082	706.67	–
298.15 K, x2 = 0.9495	702.91	–
298.15 K, x2 = 0.9516	–	2.04
308.15 K, x2 = 0	850.13	6.75
308.15 K, x2 = 0.0493	836.17	–
308.15 K, x2 = 0.0513	–	6.2
308.15 K, x2 = 0.1011	822.58	–
308.15 K, x2 = 0.1017	–	5.71
308.15 K, x2 = 0.203	–	4.88
308.15 K, x2 = 0.2032	798.9	–
308.15 K, x2 = 0.3025	–	4.23
308.15 K, x2 = 0.3036	778.63	–
308.15 K, x2 = 0.4019	761.25	–
308.15 K, x2 = 0.4021	–	3.69
308.15 K, x2 = 0.4992	746.01	–
308.15 K, x2 = 0.5006	–	3.25
308.15 K, x2 = 0.6029	–	2.87
308.15 K, x2 = 0.6046	731.48	–
308.15 K, x2 = 0.7028	–	2.57
308.15 K, x2 = 0.707	718.98	–
308.15 K, x2 = 0.802	–	2.32
308.15 K, x2 = 0.8044	708.4	–
308.15 K, x2 = 0.9027	–	2.11
308.15 K, x2 = 0.9082	698.35	–
308.15 K, x2 = 0.9493	–	2.03
308.15 K, x2 = 0.9495	694.71	–

COCCOC [1,2-dimethoxyethane] + CCCCCCCCCCCC
97 kPa
Conditions	mass density, [2] [kg/m3]	relative permittivity, [1]
288.15 K, x2 = 0	872.06	7.41
288.15 K, x2 = 0.05	–	6.6
288.15 K, x2 = 0.0501	856.95	–
288.15 K, x2 = 0.101	843.87	–
288.15 K, x2 = 0.1013	–	5.92
288.15 K, x2 = 0.2007	–	4.89
288.15 K, x2 = 0.2009	823.2	–
288.15 K, x2 = 0.3011	807.11	–
288.15 K, x2 = 0.3016	–	4.13
288.15 K, x2 = 0.402	–	3.57
288.15 K, x2 = 0.4022	794.1	–
288.15 K, x2 = 0.5014	783.69	–
288.15 K, x2 = 0.5015	–	3.15
288.15 K, x2 = 0.6016	–	2.81
288.15 K, x2 = 0.6019	774.99	–
288.15 K, x2 = 0.6998	–	2.53
288.15 K, x2 = 0.7001	767.94	–
288.15 K, x2 = 0.8049	761.62	–
288.15 K, x2 = 0.8051	–	2.33
288.15 K, x2 = 0.9011	756.69	–
288.15 K, x2 = 0.9019	–	2.16
288.15 K, x2 = 0.9514	754.42	–
288.15 K, x2 = 0.9515	–	2.1
298.15 K, x2 = 0	861.17	7.07
298.15 K, x2 = 0.0499	846.45	–
298.15 K, x2 = 0.05	–	6.31
298.15 K, x2 = 0.1013	833.6	–
298.15 K, x2 = 0.102	–	5.66
298.15 K, x2 = 0.2014	–	4.71
298.15 K, x2 = 0.2016	813.45	–
298.15 K, x2 = 0.3016	–	4
298.15 K, x2 = 0.3019	797.83	–
298.15 K, x2 = 0.4011	–	3.48
298.15 K, x2 = 0.4015	785.4	–
298.15 K, x2 = 0.5059	774.85	–
298.15 K, x2 = 0.5061	–	3.06
298.15 K, x2 = 0.6021	766.88	–
298.15 K, x2 = 0.6047	–	2.75
298.15 K, x2 = 0.7021	760.01	–
298.15 K, x2 = 0.7033	–	2.51
298.15 K, x2 = 0.8048	754.06	–
298.15 K, x2 = 0.8055	–	2.31
298.15 K, x2 = 0.9024	–	2.15
298.15 K, x2 = 0.9025	749.21	–
298.15 K, x2 = 0.9491	747.21	–
298.15 K, x2 = 0.9498	–	2.09
308.15 K, x2 = 0	850.13	6.75
308.15 K, x2 = 0.0495	835.93	–
308.15 K, x2 = 0.05	–	6.04
308.15 K, x2 = 0.0982	824.01	–
308.15 K, x2 = 0.1018	–	5.44
308.15 K, x2 = 0.2021	803.62	–
308.15 K, x2 = 0.2026	–	4.53
308.15 K, x2 = 0.2982	789.08	–
308.15 K, x2 = 0.3027	–	3.87
308.15 K, x2 = 0.4018	776.58	–
308.15 K, x2 = 0.4043	–	3.38
308.15 K, x2 = 0.5024	766.76	–
308.15 K, x2 = 0.505	–	3
308.15 K, x2 = 0.6046	758.6	–
308.15 K, x2 = 0.6068	–	2.7
308.15 K, x2 = 0.6951	752.57	–
308.15 K, x2 = 0.7013	–	2.48
308.15 K, x2 = 0.8031	746.52	–
308.15 K, x2 = 0.806	–	2.28
308.15 K, x2 = 0.8975	–	2.14
308.15 K, x2 = 0.899	741.95	–
308.15 K, x2 = 0.9502	739.81	–
308.15 K, x2 = 0.9512	–	2.07

Source: the NIST ThermoML archive (doi:10.1016/j.jct.2015.05.006)
